We go through seven substances from US5585095A, “Method to enhance thrombomodulin APC generation using cationic proteins” (Regents of the University of Minnesota, priority 1993, dated 1996).

For one series, the system named is APC. As to the kind of experiment: Detection of known amounts of APC in 15% serum by chromogenic substrate (control). In kind it is biochemical. The conditions noted are these: known amounts of APC added to 15% serum, not shown. As to the method: In addition to stimulating APC generation by soluble forms of TM in buffers, PF4 also stimulates APC generation of cell-surface TM on porcine aortic endothelial cell (PAEC) monolayers in plasmatic conditions. In these experiments, 1 cm^2 monolayers of endothelial cells were overlaid with PBS buffer containing 500 nM PC and 1 mM Ca^2+, then further supplemented with either PBS or PBS with 15% (v/v) bovine serum. To these wells were then added increasing concentrations of purified native PF4. The resultant mixture was incubated for 20 minutes after which either 2 nM (PBS) or 10 nM THR (15% serum) was added and the generation of APC allowed to proceed for 45 minutes prior to quenching with addition of AT III and EDTA. Supernatants were then centrifuged to remove cellular debris and APC generation quantified using chromogenic substrate S-2366 as described above. In the absence of added serum, there is a 2 1/2-fold increase in APC generation with an optimum at 3.3 μg/ml of PF4, but decreasing APC generation with higher concentrations. In contrast, in the presence of 15% serum, the baseline APC generation is much lower despite the presence of higher concentrations of THR. There is a PF4 dose-dependent increase in APC generation with an optimum at 33 μg/ml PF4, at which point APC generation is 10-fold higher than baseline. […]

In series [1] the target is T1, GAG+ TM (Homo sapiens, UniProt P07204).
T1 construct: encompassing the entire extracellular domain ([amino acids 1-497], which includes the serine 492 glycosylation site); host or cells: Chinese Hamster Ovary cells
Put plainly: APC generation by recombinant GAG+ TM with thrombin and protein C (chromogenic S-2366). In kind it is biochemical. The conditions noted are these: for acceleratory effect upon APC generation by thrombomodulin (GAG+ TM): conditions of Example 1, GAG+ TM, FIG. 4. On the procedure:
(§1) Human PF4 was purified from outdated platelets by THR stimulation, NH4 SO4 precipitation, heparin affinity chromatography, and Scphadex G-100 chromatography using a technique described in T. F. Deuel et al., Proc. Natl. Acad. Sci. USA, 74, 2256-2258 (1977), which is incorporated herein by reference. Dose-response studies were then performed with increasing amounts of PF4 to assay its effect upon the ability of three TM preps to generate APC from protein C. The three TM preps employed were: a) full-length rabbit TM purified from lungs (see, N. L. Esmon et al., J. Biol. Chem., 257, 859-864 (1982)); and b) two differentially glycated versions of a recombinantly produced polypeptide fragment of human TM encompassing the entire extracellular domain ([amino acids 1-497], which includes the serine 492 glycosylation site) expressed in Chinese Hamster Ovary cells, provided by Berlex Biosciences (Richmond, Calif.). See, C. B. Glaser et al., J. Clin. Invest., 90, 2565-2573 (1992). These polypeptides were produced in two chromatographically separable forms: the first has an apparent molecular weight of 116 kD and contains a chondroitinase ABC-cleavable GAG moiety (henceforth referred to GAG+ TM); the second is an unglycated version of the same polypeptide with apparent molecular weight of 95 kD, henceforth referred to as GAG- TM.
(§2) For each type of TM, 2 nM TM and 500 nM protein C were incubated together in the presence of 1 mM (i.e., physiologic) Ca^2+ with or without PF4, and the generation of APC initiated by the addition of 2 nM THR in 50 mM Tris, 100 mM NaCl, pH 7.4 at 37° C. The reaction was allowed to proceed for 10 minutes, then quenched by the addition of AT III (obtained from Enzyme Research Laboratories, Inc., South Bend, Ind.) and EDTA. APC was quantified spectrophotometrically with the chromogenic substrate S-2366 (obtained from Kabi Vitrum, Franklin, Ohio). The spectrophotometric analysis involved the conversion of the chromogenic substrate at 405 nM in a 37° C. spectrophotometer cell based on the initial rate of optical density change. Negative controls of plastic wells treated in a parallel fashion except that TM was omitted. Values obtained from these controls were then subtracted from the rates measured for wells containing monolayers.
The conditions used were identical to those listed in Example 1 except GAG+ TM obtained from Berlex Biosciences was used for all experiments.

The subject of series [2] is TM. As to the kind of experiment: APC generation in the absence of added THR (control). In kind it is biochemical. The conditions noted are these: PF4 alone or PF4 together with TM. On the procedure: as §2, with “The” for “For each type of TM, 2 nM TM and 500 nM protein C were incubated together in the presence of 1 mM (i.e., physiologic) Ca^2+ with or without PF4, and the generation of APC initiated by the addition of 2 nM THR in 50 mM Tris, 100 mM NaCl, pH 7.4 at 37° C. The”
(§3) PF4 accelerates APC generation by full-length rabbit TM and GAG- TM 4-fold, and that of GAG+ TM 25-fold. GAG+ TM was also accelerated 10-fold by PF4 in the presence of 15% defibrinated plasma. […] The increase in APC was not an artifact of PF4 influencing the catalytic activity of APC towards chromogenic substrate.

The test system of series [3] is TM. As to the kind of experiment: APC formation with exogenous TM in combination with PF4. The conditions noted are these: pharmacological (exogenous) TM in combination with purified naturally occurring or recombinant PF4. The text has this: The particularly preferred compositions of the present invention include those containing purified PF4, or a modification thereof, and a thrombomodulin preparation, such as purified soluble GAG+ thrombomodulin. Such compositions display particularly high levels of APC formation, and thus particularly effective levels of anticoagulation. For example, with the administration of a pharmacological form of TM, i.e., an exogenous form, in combination with purified naturally occurring or recombinant PF4, there is a 3-8 fold increase in the amount of APC formed, as compared to the administration of PF4 alone using endogenous forms of TM. This is particularly advantageous because TM and PF4, individually or together, have a higher therapeutic index than does heparin, which is currently used for anticoagulation therapy.

Series [4] has as its target T1, GAG+ TM. As to the kind of experiment: APC generation by recombinant GAG+ TM with thrombin and protein C (chromogenic S-2366). In kind it is biochemical.
The target in another series is T2, full-length rabbit TM (Oryctolagus cuniculus, UniProt Q8HZ48).
T2 construct: full-length rabbit TM purified from lungs; from tissue; host or cells: rabbit lung (purified after N. L. Esmon et al. 1982)
Put plainly: APC generation by soluble full-length rabbit TM with thrombin and protein C (chromogenic S-2366). In kind it is biochemical. The conditions noted are these: 2 nM TM, 500 nM protein C, 1 mM Ca2+, 2 nM THR, 10 min, 37° C., over baseline. As to the method:
For each type of cationic protein or modification thereof to be tested, 2 nM TM (full-length rabbit TM) and 500 nM protein C are incubated together in the presence of 1 mM (i.e., physiologic) Ca^2+ with either no cationic protein (for a baseline determination) or […] of the cationic protein. The generation of APC is initiated by the addition of 2 nM THR in 50 mM of the buffer Tris, 100 mM NaCl, pH 7.4 at 37° C. The reaction is allowed to proceed for 10 minutes, then quenched by the addition of AT III (antithrombin obtained from Enzyme Research Laboratories, Inc., South Bend, Ind.) and EDTA. […] A cationic protein that can be used in the methods and compositions of the present invention include those that show at least a two-fold increase in APC production, relative to a baseline of APC generated without the cationic protein.
Dose-response studies were then performed with increasing amounts of PF4 to assay its effect upon the ability of three TM preps to generate APC from protein C. […] See, C.
as §2, with “APC was quantified spectrophotometrically with the chromogenic substrate S-2366 (obtained from Kabi Vitrum, Franklin, Ohio). The spectrophotometric analysis involved the conversion of the chromogenic substrate at 405 nM in a 37° C. spectrophotometer cell based on the initial rate of optical density change.” left out

Series [5] has as its system cell-surface TM on porcine aortic endothelial cell (PAEC) monolayers. As to the kind of experiment: APC generation by porcine aortic endothelial cell monolayers. In kind it is cell-based. On the procedure:
In these experiments, 1 cm^2 monolayers of endothelial cells were overlaid with PBS buffer containing 500 nM PC and 1 mM Ca^2+, then further supplemented with either PBS or PBS with 15% (v/v) bovine serum. To these wells were then added increasing concentrations of purified native PF4. The resultant mixture was incubated for 20 minutes after which either 2 nM (PBS) or 10 nM THR (15% serum) was added and the generation of APC allowed to proceed for 45 minutes prior to quenching with addition of AT III and EDTA.

The next series deals with THR. Put plainly: TM-independent activation of protein C by THR (control). In kind it is biochemical. The conditions noted are these: controls, not shown. As to the method: as §2, §3
For a further series, the system named is GAG- TM. As to the kind of experiment: APC generation by recombinant GAG- TM with thrombin and protein C (chromogenic S-2366). In kind it is biochemical, human. As to the method:
as §1, with “These polypeptides were produced in two chromatographically separable forms: the first has an apparent molecular weight of 116 kD and contains a chondroitinase ABC-cleavable GAG moiety (henceforth referred to GAG+ TM); the second is an unglycated version of the same polypeptide with apparent molecular weight of 95 kD, henceforth referred to as GAG- TM.” left out
The reaction was allowed to proceed for 10 minutes, then quenched by the addition of AT III (obtained from Enzyme Research Laboratories, Inc., South Bend, Ind.) and EDTA. APC was quantified spectrophotometrically with the chromogenic substrate S-2366 (obtained from Kabi Vitrum, Franklin, Ohio). […] Values obtained from these controls were then subtracted from the rates measured for wells containing monolayers. […]

The subject of series [6] is purified, soluble rabbit TM. The conditions noted are these: polyanions added to MBP-inhibited TM; cited from earlier work.
Setting [7] is: 2 nM TM, 500 nM protein C, 1 mM Ca2+, 2 nM THR, 10 min, 37° C., over baseline.

T1 sequence (P07204 19-515): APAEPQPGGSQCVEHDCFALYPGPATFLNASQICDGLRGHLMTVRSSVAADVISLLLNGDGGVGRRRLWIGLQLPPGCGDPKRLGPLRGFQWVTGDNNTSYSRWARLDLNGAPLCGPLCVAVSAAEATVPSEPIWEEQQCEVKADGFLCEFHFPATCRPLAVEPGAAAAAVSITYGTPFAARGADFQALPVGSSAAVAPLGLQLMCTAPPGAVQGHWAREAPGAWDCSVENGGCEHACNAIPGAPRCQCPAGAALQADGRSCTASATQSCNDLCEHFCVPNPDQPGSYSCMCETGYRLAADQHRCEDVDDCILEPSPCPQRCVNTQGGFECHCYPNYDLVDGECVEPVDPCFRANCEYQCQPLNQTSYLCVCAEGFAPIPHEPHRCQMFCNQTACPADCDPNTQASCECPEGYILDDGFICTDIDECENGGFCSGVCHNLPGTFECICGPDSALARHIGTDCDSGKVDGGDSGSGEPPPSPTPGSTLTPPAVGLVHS
T2 sequence (Q8HZ48 19-580): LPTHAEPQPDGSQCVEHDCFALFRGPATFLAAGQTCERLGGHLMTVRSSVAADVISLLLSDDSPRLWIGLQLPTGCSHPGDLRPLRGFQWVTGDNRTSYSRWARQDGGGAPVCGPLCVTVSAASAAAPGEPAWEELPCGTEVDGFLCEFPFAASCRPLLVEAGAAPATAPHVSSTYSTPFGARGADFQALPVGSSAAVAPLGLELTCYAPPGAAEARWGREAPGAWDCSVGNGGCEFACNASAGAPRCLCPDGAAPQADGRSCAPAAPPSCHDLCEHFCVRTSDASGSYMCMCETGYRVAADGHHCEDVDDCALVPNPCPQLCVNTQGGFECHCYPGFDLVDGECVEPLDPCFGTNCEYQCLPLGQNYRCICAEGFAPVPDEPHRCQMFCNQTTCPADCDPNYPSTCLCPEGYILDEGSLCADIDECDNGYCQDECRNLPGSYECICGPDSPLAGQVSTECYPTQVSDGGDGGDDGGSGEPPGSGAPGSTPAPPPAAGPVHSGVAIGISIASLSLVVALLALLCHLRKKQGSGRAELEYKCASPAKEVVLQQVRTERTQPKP

Consider “PF4: moderately cationic and hydrophobic major protein constituent of platelet α-granules, 7.8 kD; human PF4 purified from outdated platelets”, for which, in the series on APC, the “effect on APC detection by chromogenic substrate” value is on record as “did not diminish or augment APC detection”. Moreover, in the series with GAG+ TM [1] (setting [7]), the “fold acceleration of APC generation by GAG+ TM” value is listed as 25 fold. Further, the “acceleration of GAG+ TM by PF4 relative to full-length rabbit TM and GAG- TM (fold-over-baseline basis)” value with GAG+ TM [1] (fold-over-baseline comparison) is “more than six times as much”. Further, the “fold acceleration of APC generation by GAG+ TM in plasma” value in the series with GAG+ TM [1] (in the presence of 15% defibrinated plasma) stood at 10 fold. In addition, the “APC generation in the absence of added THR” value with TM [2] is listed as “neither PF4 alone nor PF4 together with TM generated APC”. Moreover, the “fold increase in the amount of APC formed, exogenous TM plus PF4 versus PF4 alone using endogenous TM” value in the series on TM [3] is on record as 3-8 fold. Besides, in the series with GAG+ TM [4] (0 calcium, buffers with 1 mM EDTA, GAG+ and GAG- forms of TM), the “APC generation in the absence of Ca2+” value was “allows both the GAG+ and GAG- forms of TM to generate APC even in the absence of Ca^2+”. The “Ca2+ optimum of APC generation by GAG+ TM with PF4 added” value with GAG+ TM [4] (PF4 added, FIG. 2) is 0.5 mM. Also, the “fold acceleration of APC generation by full-length rabbit TM” value in the series with full-length rabbit TM turned out to be 4 fold. Besides, in series [5] (15% (v/v) bovine serum, 10 nM THR), the “PF4 concentration optimum for APC generation, PAEC, 15% serum” value is 33 µg/mL. For the same substance, the “fold increase in APC generation over baseline, PAEC, 15% serum” value in series [5] (15% (v/v) bovine serum, 10 nM THR, at 33 μg/ml PF4) was determined as 10 fold. In addition, the “PF4 concentration optimum for APC generation, PAEC, no serum” value in series [5] (PBS, absence of added serum, 2 nM THR) was 3.3 µg/mL. Besides, the “effect upon TM-independent activation of protein C by THR” value in the series on THR is “essentially no effect”. Besides, the “fold acceleration of APC generation by GAG- TM” value in the series with GAG- TM (setting [7]) came to 4 fold. For the same substance, the “effect of PF4 on Ca2+ dependence of APC generation by GAG- variant” value with GAG- TM (several Ca2+ concentrations, FIG. 2) is “increases APC generation at all Ca^2+ concentrations but does not shift the overall shape of the curve”.

With chondroitin sulfate A, the “acceleratory effect upon APC generation by thrombomodulin (GAG+ TM)” value (“acceleratory effect upon APC generation” for short) on GAG+ TM [1] was “no such effect”.

Regarding chondroitin sulfate E, the “reversal of MBP inhibition of APC generation” value in series [6] was “reversed”. Besides, the “acceleratory effect upon APC generation” value at GAG+ TM [1] is “no such effect”.

heparin: the “reversal of MBP inhibition of APC generation” value in series [6] is reported as “reversed”. Moreover, the “acceleratory effect upon APC generation” value at GAG+ TM [1] is “no such effect”.

With poly-L-lysine, the “acceleratory effect upon APC generation” value at GAG+ TM [1] was “can be replicated”. Further, the “fold acceleration of APC generation by full-length rabbit TM” value at full-length rabbit TM is listed as 2.5 fold.

protamine sulfate: the “acceleratory effect upon APC generation” value with GAG+ TM [1] is reported as “can be replicated”. For the same substance, in the series with full-length rabbit TM, the “fold acceleration of APC generation by full-length rabbit TM” value is listed as 2.5 fold.

“thrombospondin: anionic protein; major constituent of platelet α-granules”: the “acceleratory effect upon APC generation” value with GAG+ TM [1] is “no such effect”.
